The target of the assay is Beta-3 Adrenergic Receptor (Homo sapiens (Human), UniProt P13945). Briefly: HTRF cAMP antagonist assay (IC50 determination). In kind it is cell-based. The note with it: CHO-K1 cells stably expressing recombinant receptor; antagonism of isoproterenol at EC90; cAMP readout. The gist of the method:
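In this functional readout, recombinant CHO-K1 cells received compound, then isoproterenol at its EC90. After 1 h at room temperature, cAMP levels were determined by HTRF using an on-plate standard curve, and IC50 values were fitted.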
For orientation: TR-FRET usually uses a lanthanide donor and a delayed reading to cut background.
Sequence of Beta-3 Adrenergic Receptor (P13945 whole entry, species assumed): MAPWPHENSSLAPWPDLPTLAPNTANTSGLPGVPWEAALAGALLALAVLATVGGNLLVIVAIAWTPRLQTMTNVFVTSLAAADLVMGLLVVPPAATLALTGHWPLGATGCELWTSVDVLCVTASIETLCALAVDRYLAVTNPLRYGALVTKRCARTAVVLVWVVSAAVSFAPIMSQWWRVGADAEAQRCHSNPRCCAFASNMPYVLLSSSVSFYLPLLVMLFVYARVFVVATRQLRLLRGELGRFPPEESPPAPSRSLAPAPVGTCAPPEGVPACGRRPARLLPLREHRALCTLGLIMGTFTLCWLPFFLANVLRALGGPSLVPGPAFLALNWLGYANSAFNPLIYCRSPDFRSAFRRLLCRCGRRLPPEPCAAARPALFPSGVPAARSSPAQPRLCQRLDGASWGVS
Broadly, the IC50 is the point on the concentration scale where inhibition reaches its midpoint. Regarding `NC1(c2ccc(-c3cccc(S(=O)(=O)N4CCC5(CC4)C[C@H](NC[C@H](O)COc4cccc(S(=O)(=O)C6(CO)CC6)c4)CO5)c3)cc2)CC1` [Compound 184, (S)-1-((S)-8-(4′-(1-aminocyclopropyl)biphenyl-3-ylsulfonyl)-1-oxa-8-azaspiro[4.5]decan-3-ylamino)-3-(3-(1-(hydroxymethyl)cyclopropylsulfonyl)phenoxy)propan-2-ol], the concentration for half-maximal inhibition (IC50) is 26.7 nM.

Take `O=S(=O)(CCO)c1cccc(OC[C@@H](O)CN[C@H]2COC3(CCN(S(=O)(=O)c4ccc(-c5ccncc5)cc4)CC3)C2)c1` [Compound 101, (S)-1-(3-(2-hydroxyethylsulfonyl)phenoxy)-3-((R)-8-(4-(pyridin-4-yl)phenylsulfonyl)-1-oxa-8-azaspiro[4.5]decan-3-ylamino)propan-2-ol]: the half-inhibitory concentration (IC50) was 466 nM.

On to `O=S(=O)(c1cncc(Br)c1)N1CCC2(CC1)C[C@@H](NC[C@H](O)COc1cccc(S(=O)(=O)C3(CO)CC3)c1)CO2` [Compound 185, (S)-1-((R)-8-(5-bromopyridin-3-ylsulfonyl)-1-oxa-8-azaspiro[4.5]decan-3-ylamino)-3-(3-(1-(hydroxymethyl)cyclopropylsulfonyl)phenoxy)propan-2-ol], for which the IC50 came out at 258 nM.

In the case of `O=S(=O)(CCO)c1cccc(OC[C@@H](O)CN[C@H]2COC3(CCN(S(=O)(=O)c4ccc5ccccc5c4)CC3)C2)c1` [Compound 35, (S)-1-(3-(2-hydroxyethylsulfonyl)phenoxy)-3-((R)-8-(naphthalen-2-ylsulfonyl)-1-oxa-8-azaspiro[4.5]decan-3-ylamino)propan-2-ol], the IC50 was 20.3 nM.

Take `O=S(=O)(c1ccc2ccccc2c1)N1CCC2(CC1)C[C@@H](NC[C@H](O)COc1cccc(S(=O)(=O)C3(CO)CC3)c1)CO2` [Compound 300, (S)-1-(3-(1-(hydroxymethyl)cyclopropylsulfonyl)phenoxy)-3-((R)-8-(naphthalen-2-ylsulfonyl)-1-oxa-8-azaspiro[4.5]decan-3-ylamino)propan-2-ol]: the 50% inhibitory concentration (IC50) was found to be 20.4 nM.

As for `CCOc1ccc(-c2ccc(C(C)(C)N)cc2)cc1S(=O)(=O)N1CCC2(CC1)CC(NC[C@H](O)COc1cccc(S(=O)(=O)C3(CO)CC3)c1)CO2` (stereo partly shown) [Compound 251], the IC50 is 51.6 nM.

Consider `CCOc1ccc(-c2ccc(CN)cc2)cc1S(=O)(=O)N1CCC2(CC1)C[C@H](NC[C@H](O)COc1cccc(S(C)(=O)=O)c1)CO2` [Compound 231, (S)-1-((S)-8-(4′-(aminomethyl)-4-ethoxybiphenyl-3-ylsulfonyl)-1-oxa-8-azaspiro[4.5]decan-3-ylamino)-3-(3-(methylsulfonyl)phenoxy)propan-2-ol], for which the IC50 came out at 19.6 nM.

`CS(=O)(=O)c1cccc(OC[C@@H](O)CNC2COC3(CCN(C(=O)Cc4csc(N)n4)CC3)C2)c1` (stereo partly drawn) [Compound 56, 2-(2-aminothiazol-4-yl)-1-(3-((S)-2-hydroxy-3-(3-(methylsulfonyl)phenoxy)propylamino)-1-oxa-8-azaspiro[4.5]decan-8-yl)ethanone]: the IC50 amounted to 1990 nM.

For the molecule `O=S(=O)(CCCO)c1cccc(OC[C@@H](O)CN[C@H]2COC3(CCN(S(=O)(=O)c4ccc5ncccc5c4)CC3)C2)c1` [Compound 121, 3-(3-((S)-2-hydroxy-3-((R)-8-(quinolin-6-ylsulfonyl)-1-oxa-8-azaspiro[4.5]decan-3-ylamino)propoxy)phenylsulfonyl)propan-1-ol], the IC50 was 562 nM.

In the case of `N#CCS(=O)(=O)c1cccc(OC[C@@H](O)CNC2COC3(CCN(S(=O)(=O)c4ccc5ccccc5c4)CC3)C2)c1` (stereo partly drawn) [Compound 12, 2-(3-((2S)-2-hydroxy-3-(8-(naphthalen-2-ylsulfonyl)-1-oxa-8-azaspiro[4.5]decan-3-ylamino)propoxy)phenylsulfonyl)acetonitrile], the IC50 turned out to be 130 nM.

Take `CCS(=O)(=O)c1cccc(OC[C@@H](O)CNC2COC3(CCN(S(=O)(=O)c4ccc5ccccc5c4)CC3)C2)c1` (stereo partly drawn) [Compound 15, (2S)-1-(3-(ethylsulfonyl)phenoxy)-3-(8-(naphthalen-2-ylsulfonyl)-1-oxa-8-azaspiro[4.5]decan-3-ylamino)propan-2-ol]: the IC50 was 5.7 nM.

In the case of `CCn1cc(S(=O)(=O)N2CCC3(CC2)C[C@@H](NC[C@H](O)COc2cccc(S(=O)(=O)C4CC4)c2)CO3)c(=O)c2cccc(F)c21` [Compound 333, 3-((R)-3-((S)-3-(3-(cyclopropylsulfonyl)phenoxy)-2-hydroxypropylamino)-1-oxa-8-azaspiro[4.5]decan-8-ylsulfonyl)-1-ethyl-8-fluoroquinolin-4(1H)-one], the 50% inhibitory concentration (IC50) came out at 16.3 nM.

As to `CC(C)S(=O)(=O)c1cccc(OC[C@@H](O)CN[C@H]2COC3(CCN(S(=O)(=O)c4cnc5cc[nH]c5c4)CC3)C2)c1` [Compound 321, (S)-1-((R)-8-(1H-pyrrolo[3,2-b]pyridin-6-ylsulfonyl)-1-oxa-8-azaspiro[4.5]decan-3-ylamino)-3-(3-(isopropylsulfonyl)phenoxy)propan-2-ol], the half-maximal inhibitory concentration (IC50) came out at 17.8 nM.

For the molecule `CC(F)S(=O)(=O)c1cccc(OC[C@@H](O)CN[C@H]2COC3(CCN(S(=O)(=O)c4cnc5c(c4)N(C)CCO5)CC3)C2)c1` (stereo partly drawn) [Compound 235, (2S)-1-(3-(1-fluoroethylsulfonyl)phenoxy)-3-((R)-8-(1-methyl-2,3-dihydro-1H-pyrido[2,3-b][1,4]oxazin-7-ylsulfonyl)-1-oxa-8-azaspiro[4.5]decan-3-ylamino)propan-2-ol], the IC50 is 15 nM.

On to `O=S(=O)(c1cccc(-c2ccc(CNCC(F)(F)F)cc2)c1)N1CCC2(CC1)C[C@@H](NC[C@H](O)COc1cccc(S(=O)(=O)C3(CO)CC3)c1)CO2` [Compound 264, (S)-1-(3-(1-(hydroxymethyl)cyclopropylsulfonyl)phenoxy)-3-((R)-8-(4′-((2,2,2-trifluoroethylamino)methyl)biphenyl-3-ylsulfonyl)-1-oxa-8-azaspiro[4.5]decan-3-ylamino)propan-2-ol], for which the 50% inhibitory concentration (IC50) amounted to 980 nM.

For `CCOc1ccc(-c2ccc(CCNC(C)=O)cc2)cc1S(=O)(=O)N1CCC2(CC1)C[C@H](NC[C@H](O)COc1cccc(S(=O)(=O)C3(CO)CC3)c1)CO2` [Compound 177, N-(2-(4′-ethoxy-3′-((S)-3-((S)-2-hydroxy-3-(3-(1-(hydroxymethyl)cyclopropylsulfonyl)phenoxy)propylamino)-1-oxa-8-azaspiro[4.5]decan-8-ylsulfonyl)biphenyl-4-yl)ethyl)acetamide], the 50% inhibitory concentration (IC50) was found to be 50.6 nM.

As to `O=S(=O)(CCO)c1cccc(OC[C@@H](O)CNC2COC3(CCN(S(=O)(=O)c4ccc5ccccc5c4)CC3)C2)c1` (stereo partly drawn) [Compound 5, (2S)-1-(3-(2-hydroxyethylsulfonyl)phenoxy)-3-(8-(naphthalen-2-ylsulfonyl)-1-oxa-8-azaspiro[4.5]decan-3-ylamino)propan-2-ol], the IC50 stood at 33.3 nM.

As for `CC(C)S(=O)(=O)c1cccc(OC[C@@H](O)CN[C@H]2COC3(CCN(S(=O)(=O)c4cnc5ccccc5c4)CC3)C2)c1` [Compound 119, (S)-1-(3-(isopropylsulfonyl)phenoxy)-3-((R)-8-(quinolin-3-ylsulfonyl)-1-oxa-8-azaspiro[4.5]decan-3-ylamino)propan-2-ol], the half-maximal inhibitory concentration (IC50) came to 11.6 nM.

As to `CC(C)S(=O)(=O)c1cccc(OC[C@@H](O)CN[C@H]2COC3(CCN(S(=O)(=O)c4cnc5c(c4)N(C)CCO5)CC3)C2)c1` [Compound 153, (S)-1-(3-(isopropylsulfonyl)phenoxy)-3-((R)-8-(1-methyl-2,3-dihydro-1H-pyrido[2,3-b][1,4]oxazin-7-ylsulfonyl)-1-oxa-8-azaspiro[4.5]decan-3-ylamino)propan-2-ol], the half-maximal inhibitory concentration (IC50) was found to be 18.8 nM.

For the molecule `CS(=O)(=O)Cc1cccc(OC[C@@H](O)CNC2COC3(CCN(S(=O)(=O)c4ccc5ccccc5c4)CC3)C2)c1` (stereo partly drawn) [Compound 335, (2S)-1-(3-(methylsulfonylmethyl)phenoxy)-3-(8-(naphthalen-2-ylsulfonyl)-1-oxa-8-azaspiro[4.5]decan-3-ylamino)propan-2-ol], the IC50 came out at 14.4 nM.

Consider `CN1CCOc2ncc(S(=O)(=O)N3CCC4(CC3)C[C@@H](NC[C@H](O)COc3cccc(S(=O)(=O)CCCO)c3)CO4)cc21` [Compound 150, 3-(3-((S)-2-hydroxy-3-((R)-8-(1-methyl-2,3-dihydro-1H-pyrido[2,3-b][1,4]oxazin-7-ylsulfonyl)-1-oxa-8-azaspiro[4.5]decan-3-ylamino)propoxy)phenylsulfonyl)propan-1-ol], for which the concentration for half-maximal inhibition (IC50) stood at 227 nM.

Regarding `CCCS(=O)(=O)c1cccc(OC[C@@H](O)CN[C@H]2COC3(CCN(S(=O)(=O)c4ccc5ncccc5c4)CC3)C2)c1` [Compound 115, (S)-1-(3-(propylsulfonyl)phenoxy)-3-((R)-8-(quinolin-6-ylsulfonyl)-1-oxa-8-azaspiro[4.5]decan-3-ylamino)propan-2-ol], the IC50 came out at 120 nM.

As for `Cn1cnc2cc(S(=O)(=O)N3CCC4(CC3)C[C@@H](NC[C@H](O)COc3cccc(S(=O)(=O)C5CC5)c3)CO4)cnc21` [Compound 279, (S)-1-(3-(cyclopropylsulfonyl)phenoxy)-3-((R)-8-(3-methyl-3H-imidazo[4,5-b]pyridin-6-ylsulfonyl)-1-oxa-8-azaspiro[4.5]decan-3-ylamino)propan-2-ol], the IC50 stood at 39.7 nM.

For `O=S(=O)(c1ccc2ncccc2c1)N1CCC2(CC1)C[C@@H](NC[C@H](O)COc1cccc(S(=O)(=O)C3(CO)CC3)c1)CO2` [Compound 147, (S)-1-(3-(1-(hydroxymethyl)cyclopropylsulfonyl)phenoxy)-3-((R)-8-(quinolin-6-ylsulfonyl)-1-oxa-8-azaspiro[4.5]decan-3-ylamino)propan-2-ol], the IC50 was found to be 53.3 nM.

Consider `NC1(c2ccc(-c3cc(S(=O)(=O)N4CCC5(CC4)C[C@H](NC[C@H](O)COc4cccc(S(=O)(=O)C6(CO)CC6)c4)CO5)ccc3F)cc2)CC1` [Compound 219, (S)-1-((S)-8-(4′-(1-aminocyclopropyl)-6-fluorobiphenyl-3-ylsulfonyl)-1-oxa-8-azaspiro[4.5]decan-3-ylamino)-3-(3-(1-(hydroxymethyl)cyclopropylsulfonyl)phenoxy)propan-2-ol], for which the IC50 worked out at 21.6 nM.

The values are drawn from US10927123B2, “Modulators of the beta-3 adrenergic receptor useful for the treatment or prevention of disorders related thereto” (Arena Pharmaceuticals, Inc., priority 2016, dated 2021).
